# Measured values from paper PMC4067310, “From Pan-Reactive KV7 Channel Opener to Subtype Selective Opener/Inhibitor by Addition of a Methyl Group” (PLoS ONE, 2014).
# Several values for one entry are separate records, joined by “and”; a condition that tells them apart may be missing. Identical values can stand only once.
# How the values were obtained:
# Format in all cases: cell-based
# KV7.2 = biological target: T1, KV7.2 (Homo sapiens, UniProt O43526); assay: Two-electrode voltage-clamp of KV7.2 expressed in Xenopus laevis oocytes
# T1 construct: expressed in transfected cells; host or cells: Xenopus laevis oocytes injected with cRNA (pGEM-HE vector)
# T1 sequence (O43526 whole entry): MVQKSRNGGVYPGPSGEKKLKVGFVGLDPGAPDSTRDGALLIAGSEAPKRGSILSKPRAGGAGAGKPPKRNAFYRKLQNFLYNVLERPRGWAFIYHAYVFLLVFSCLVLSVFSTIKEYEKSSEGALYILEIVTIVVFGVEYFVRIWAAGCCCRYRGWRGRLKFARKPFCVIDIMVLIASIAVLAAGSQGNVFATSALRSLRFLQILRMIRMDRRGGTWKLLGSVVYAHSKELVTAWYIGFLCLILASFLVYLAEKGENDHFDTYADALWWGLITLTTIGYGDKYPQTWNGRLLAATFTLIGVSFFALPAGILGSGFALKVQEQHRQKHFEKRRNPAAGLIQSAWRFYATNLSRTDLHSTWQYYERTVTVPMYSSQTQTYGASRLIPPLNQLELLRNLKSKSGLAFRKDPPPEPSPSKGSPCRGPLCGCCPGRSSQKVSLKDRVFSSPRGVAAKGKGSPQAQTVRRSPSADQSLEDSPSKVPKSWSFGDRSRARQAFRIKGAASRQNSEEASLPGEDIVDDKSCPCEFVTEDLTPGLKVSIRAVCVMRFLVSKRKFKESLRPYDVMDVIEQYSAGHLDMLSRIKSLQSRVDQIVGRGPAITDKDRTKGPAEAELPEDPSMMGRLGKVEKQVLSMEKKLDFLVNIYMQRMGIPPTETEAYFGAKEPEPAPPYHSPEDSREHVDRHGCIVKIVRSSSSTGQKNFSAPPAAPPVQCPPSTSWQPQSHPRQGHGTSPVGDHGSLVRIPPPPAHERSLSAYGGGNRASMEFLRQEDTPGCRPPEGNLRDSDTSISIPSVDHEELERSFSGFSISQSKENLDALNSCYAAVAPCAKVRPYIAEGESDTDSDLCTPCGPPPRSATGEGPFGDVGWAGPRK
# Method: (§1) Point mutations were introduced using mutated oligonucleotide extension (PfuTurbo Polymerase, Stratagene, La Jolla, CA, USA) from a plasmid template harboring the cDNA of interest, digested with DpnI (Fermentas, St. Leon-Roth, Germany) and transformed into E.coli XL1 Blue cells. The construct was verified by complete DNA sequencing of the cDNA insert. cRNA was prepared from linearized human wild-type (WT) and mutant KV7 channels in the pGEM-HE vector using the T7 m-Message Machine kit (Ambion, Austin, TX, USA) according to the manufacturer's instructions.
# (§2) Extraction of Xenopus laevis oocytes and injection of cRNA was performed as described previously. Oocytes were kept in Modified Barth's Saline (in mM: 88 NaCl, 1 KCl, 2.4 NaHCO3, 0.41 CaCl2, 0.82 MgSO4, 0.3 Ca(NO3)2, 15 HEPES, pH 7.4 supplemented with 100 U/mL penicillin and 100 µg/mL streptomycin) at 18°C, and currents were recorded after 2-7 days. The care of Xenopus laevis and the oocyte extraction procedure were performed according to national guidelines and approved by the Danish Animal Experiments Inspectorate.
# (§3) KV7 currents in Xenopus laevis oocytes were recorded using two-electrode voltage-clamp at room temperature in Ringer buffer (in mM: 115 NaCl, 2.5 KCl, 1.8 CaCl2, 0.1 MgCl2, 10 HEPES, pH 7.4) as described previously. Data was acquired using pCLAMP 10.2 software (Molecular Devices, CA, USA) and analyzed using pCLAMP 10.2 and GraphPad Prism 4.0 (GraphPad Software Inc., CA, USA). Currents were elicited from a holding potential of −80 mV by 5 s steps to potentials between −100 and +50 mV in 10 mV increments, followed by a 2 s step to −120 mV.
# SMB-1 was dissolved in dimethyl sulfoxide (DMSO) to obtain a concentrated stock solution. On the day of experiments the stock solution was thawed and diluted in Ringer buffer to the final concentrations. A concentration of 10 µM SMB-1 was used unless indicated otherwise. The final DMSO concentration never exceeded 0.1%.
# (§4) Current – voltage (I–V) relationship curves were generated by normalizing the steady-state peak current measured at potentials between −100 and +50 mV to the current measured at +50 mV in control recordings and plotting the values against the test potential.
# The voltage-dependence of activation was determined from tail current analysis using the current measured immediately after the transient capacitive current after stepping to −120 mV from potentials between −100 mV and +50 mV. Data was normalized to extend from 0–1 and the tail current-voltage relationship was fitted to the Boltzmann equation: [drawing 1] (Equation\;1) where I max is the maximum tail current, I min is the minimum tail current, V0.5 is the potential for half maximal activation and k is the slope factor. A V0.5 was calculated for each individual experiment and statistical significance was estimated by paired two-tailed Student's t-test.
# Activation kinetics for KV7.2 and KV7.2-W236L was determined by fitting the traces recorded at potentials between −40 and +40 mV to a double exponential function: [drawing 2] (Equation\;2) where I(t) is the current at time t, Ifast and Islow are the current amplitudes at infinite times, and τfast and τslow are the time constants of the fast and slow components, respectively.
# (§5) For investigation of deactivation kinetics the tail current traces recorded at −120 mV when stepping from the channels' respective ∼V0.5 were fitted to a single exponential function (Eq. 3).
# Dose-response curves from electrophysiological experiments were made by plotting the increase in steady state current at +50 mV expressed in percentages as a function of drug concentration. The data were then analyzed by non-linear regression and fitted to the equation for sigmoidal dose-response with variable slope: [drawing 4] (Equation\;4) where R1 is the initial response, R2 is the maximum response, X is the logarithm of the drug concentration and nH is the slope (Hill coefficient) of the curve.
# KV7.2-L275V = biological target: T2, KV7.2-L275V (Homo sapiens, UniProt O43526, L275V); assay: Two-electrode voltage-clamp of mutant KV7.2-L275V in Xenopus laevis oocytes; conditions: 10 µM SMB-1, +50 mV, n = 4; read-out: current amplitude, % of control
# T2 construct: expressed in transfected cells; host or cells: Xenopus laevis oocytes injected with cRNA (pGEM-HE vector)
# T2 sequence (O43526 whole entry L275V): as the sequence (O43526 whole entry) above, with L275V counted along it
# Method: as §1
# as §2, with “The care of Xenopus laevis and the oocyte extraction procedure were performed according to national guidelines and approved by the Danish Animal Experiments Inspectorate.” left out
# as §3, with “Currents were elicited from a holding potential of −80 mV by 5 s steps to potentials between −100 and +50 mV in 10 mV increments, followed by a 2 s step to −120 mV.” left out
# KV7.4-W242L = biological target: T3, KV7.4-W242L (Homo sapiens, UniProt P56696, W242L); assay: Two-electrode voltage-clamp of mutant KV7.4-W242L in Xenopus laevis oocytes
# T3 construct: expressed in transfected cells; host or cells: Xenopus laevis oocytes injected with cRNA (pGEM-HE vector)
# T3 sequence (P56696 1-695 W242L): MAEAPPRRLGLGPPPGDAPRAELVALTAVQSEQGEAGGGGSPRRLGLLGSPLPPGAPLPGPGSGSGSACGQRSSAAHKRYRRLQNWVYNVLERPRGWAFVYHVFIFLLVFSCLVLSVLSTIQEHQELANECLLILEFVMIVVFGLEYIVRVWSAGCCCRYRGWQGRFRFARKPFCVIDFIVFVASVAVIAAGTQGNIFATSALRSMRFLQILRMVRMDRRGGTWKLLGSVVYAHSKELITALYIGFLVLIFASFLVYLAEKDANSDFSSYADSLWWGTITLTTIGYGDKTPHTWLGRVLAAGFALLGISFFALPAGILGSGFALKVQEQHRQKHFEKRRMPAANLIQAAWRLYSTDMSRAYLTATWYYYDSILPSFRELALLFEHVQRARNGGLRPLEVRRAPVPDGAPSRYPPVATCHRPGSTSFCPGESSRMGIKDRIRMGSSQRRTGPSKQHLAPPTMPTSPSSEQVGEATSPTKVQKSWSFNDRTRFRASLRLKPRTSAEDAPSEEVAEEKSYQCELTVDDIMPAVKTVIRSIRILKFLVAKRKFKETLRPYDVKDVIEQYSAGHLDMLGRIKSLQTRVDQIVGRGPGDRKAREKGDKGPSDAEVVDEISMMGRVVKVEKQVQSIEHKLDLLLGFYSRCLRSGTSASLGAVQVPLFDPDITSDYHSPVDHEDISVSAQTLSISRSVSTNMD
# Method: as §1, §2, §3
# SMB-1 was dissolved in dimethyl sulfoxide (DMSO) to obtain a concentrated stock solution. […]
# as §4
# The voltage-dependence of activation was determined from tail current analysis using the current measured immediately after the transient capacitive current after stepping to −120 mV from potentials between −100 mV and +50 mV. […] A V0.5 was calculated for each individual experiment and statistical significance was estimated by paired two-tailed Student's t-test.
# Activation kinetics for KV7.4 and KV7.4-W242L was determined by fitting the traces recorded at potentials between −30 and +50 mV to a single exponential function: [drawing 3] […]
# as §5
structure (smiles),measurement,setting,value
"C[C@@H](c1ccc2c(c1)N(CC1CC1)CCO2)N(C)C(=O)/C=C/c1ccccc1F [SMB-1, (E)-N-[(S)-1-(4-Cyclopropylmethyl-3,4-dihydro-2H-1,4-benzoxazin-6-yl)-ethyl]-3-(2-fluoro-phenyl)-N-methyl-acrylamide]",effect on τact_fast,KV7.2; 10 µM,did not affect
same,remaining activity at 10 µM,"KV7.2; 10 µM SMB-1, +50 mV, n = 9, read-out: current amplitude, % of control",81.7 ± 3.1%
same,effect on τact_slow,"KV7.2; 10 µM, at −20 mV and above",increased
same,"τdeact, deactivation time constant in presence of compound","KV7.2; 10 µM, control 20.2±1.4 ms, n = 7, p<0.001",37.3 ± 3.3 ms
same,"V0.5, voltage-dependence of activation in presence of compound","KV7.2; 10 µM, control −22.5±2.2 mV, n = 8, p<0.05",-18.0±2.7 mV
same,IC50,"KV7.2; current amplitude at +50 mV, 0.4, 2, 10 and 50 µM, n = 5",~7.4 µM and 7.4 µM
same,remaining activity at 10 µM,KV7.2-L275V,90.4 ± 4.1%
same,effect on activation kinetics,KV7.4-W242L; 10 µM,neither any significant effect
same,remaining activity at 10 µM,"KV7.4-W242L; 10 µM SMB-1, +50 mV, n = 5, read-out: current amplitude, % of control",74.8 ± 4.2%
same,"V0.5, voltage-dependence of activation in presence of compound","KV7.4-W242L; 10 µM, control 5.5±4.5 mV, n = 5, p = 0.2",4.3±4.9 mV
same,"τdeact, deactivation time constant in presence of compound","KV7.4-W242L; 10 µM, control 12.5±2.2 ms, n = 5, p = 0.5",12.3 ± 2.2 ms
